Literature values as cited in patent US6749871B2, “Compositions for treating symptoms of urogenital/urological disorders” (Prater Herbs, L.L.C., priority 2002, dated 2004).

System: benign prostatic hyperplasia
Conditions: three-year clinical evaluation

Question: For CC(C)(C)NC(=O)[C@H]1CC[C@H]2[C@@H]3CC[C@H]4NC(=O)C=C[C@]4(C)[C@H]3CC[C@]12C [Finasteride], which “Improvement in urinary flow rate” value is on record?
Answer: Its value is 2.3 ml per second.

Question: What about the “Participants with side effects such as decreased libido and impotence” value of the same compound?
Answer: The value was “about four to five percent”.

Question: What about the “Reduction in prostatic volume” value of the same compound?
Answer: The value was “about 27%”.

Question: And the “Reduction in symptom score” value?
Answer: Its value is 3.6 points.
